Publication PMC3806745, “Selective Inhibition of Matrix Metalloproteinase-9 Attenuates Secondary Damage Resulting from Severe Traumatic Brain Injury” (PLoS ONE, 2013)

Experiments:
[1] = tested on: TBI mouse model (EM impactor CCI); assay: Microglial activation and astrogliosis, CD11b/GFAP immunofluorescence after TBI; format: in vivo; conditions: TBI mice, SB-3CT treatment for 7 days; 7 days post-trauma
Procedure: (§1) All animal procedures were performed under the compliance with protocol approval by the University of Missouri Animal Care and Use Committee, which is in accordance with the National Institutes of Health Guide for the Care and Use of Laboratory Animals. The TBI procedure employed an EM impactor for CCI and was conducted as previously described. A total of 86 mice were used in this study. Briefly, 8–10 week-old adult male C57BL/6J mice (The Jackson Laboratory, Bar Harbor, ME) weighing 20–25 g were anesthetized with 2.0% gaseous isoflurane in a nitrogen/oxygen mixture inside a sealed anesthesia chamber. Each mouse was then stably placed on a Kopf stereotaxic apparatus (David Kopf Instruments, Tujunga, CA). Body temperature was monitored with a rectal thermistor probe (TH-10Kmp, Cell MicroControls, Norfolk, VA), and maintained at a constant 37°C on a silicon heating pad (HS-3×2.5 Heater, Cell MicroControls, Norfolk, VA). […]
(§2) Fluorescence immunohistochemistry was carried out as described, [16], [19]. For each brain analyzed, coronal sections were chosen near the center of the craniotomy (Bregma −1.50 mm) and adjacent to a section stained with cresyl violet for comparison. […]

[2] = Regional brain distribution of SB-3CT and p-OH SB-3CT after repeated i.p. SB-3CT; format: in vivo, mouse; conditions: mice
Procedure: Under anesthesia, terminal blood was collected in heparin tubes through the posterior vena cava at various time points after the last dose, and tubes were centrifuged to collect plasma. Whole brain samples were harvested after transcardiac perfusion with saline and immediately flash frozen in liquid nitrogen and stored at −80°C until analysis. […] At 10 minutes after the last dose, whole brain samples were rapidly dissected into different regions (cortex, striatum, hippocampus, cerebellum and brain stem), and immediately frozen in dry ice.
A 75-µL aliquot of plasma was mixed with 150 µL of internal standard in acetonitrile. The sample was centrifuged at 10,000×g for 10 minutes. Brain samples were weighed and homogenized for 5 minutes in one volume equivalent of cold acetonitrile, containing an internal standard, using a bullet blender (Next Advance, Inc., Averill Park, NY). For regional brain distribution, the striatum, hippocampus, cerebellum and brain stem samples were pooled from 3 different mice for analysis.
The homogenates were centrifuged twice at 20,000×g for 20 minutes at 4°C. […] Quantification was performed using peak area ratios relative to the internal standard and linear regression parameters were calculated from the calibration curve standards prepared in blank mouse plasma (and blank brain). The internal standard used in all of the analyses was N-(4-(4-((thiiran-2-ylmethyl)sulfonyl)phenoxy)phenyl)methanesulfonamide [43], which was analyzed by MRM using the transition 398→261. The chromatographic, MRM conditions, and method validation were the same as previously described [17].

[3] = tested on: TBI mouse model (EM impactor CCI); assay: Barnes maze after TBI; format: in vivo; conditions: TBI mice, 25 mg/kg i.p. for 7 days
Procedure: as §1, with “VA). Following a midline skin incision and removal of connective tissue under sterile conditions, a 5.0 mm diameter craniotomy was performed in the left parietotemporal skull using a pedal-operated high-speed micro-drill mounted on the stereotaxic arm. A 5.0-mm diameter bone disc was then removed to expose the left cortex, while keeping the dura mater intact.” for “VA).”

[4] = tested on: TBI mouse model (EM impactor CCI); assay: Beam-walking test after TBI; format: in vivo; conditions: TBI mice, 25 mg/kg i.p. for 7 days
[5] = tested on: TBI mouse model (EM impactor CCI); assay: Neurons with dendrites, NeuN/MAP2 immunohistochemistry after TBI; format: in vivo; conditions: TBI mice, 25 mg/kg i.p. for 7 days; 7 days after TBI
Procedure: as §1, §2

[6] = 10 minutes after the last i.p. dose of SB-3CT

O=S(=O)(CC1CS1)c1ccc(Oc2ccccc2)cc1 (stereo not drawn) [SB-3CT]
Immunoreactivity of GFAP-stained astrocytes [1]: partially attenuated | Numbers of CD11b-positive microglial cells in lesioned cortex vs vehicle [1]: significantly reduced | Conc, whole brain ([2]; 10 minutes after the last i.p. dose of SB-3CT (25 mg/kg at 0, 2, 24 h)): 3.7±0.5 pmole/mg tissue | Conc, brain stem [2, 6]: 2.8±0.8 pmole/mg tissue | Conc, cerebellum [2, 6]: 2.4±0.4 pmole/mg tissue | Conc, cortex [2, 6]: 2.7±0.8 pmole/mg tissue | Conc, hippocampus [2, 6]: 3.1±0.8 pmole/mg tissue | Conc, plasma [2, 6]: 6.2 ± 0.1 µM | Conc, striatum [2, 6]: 3.5±1.1 pmole/mg tissue | Barnes maze latency AUC over 10 trials (memory acquisition) vs vehicle ([3]; 5-day task started 18 days post-trauma): ameliorated cognitive deficits | Barnes maze latency and error numbers vs vehicle ([3]; last two days of the trials (days 22 and 23 after TBI)): significantly attenuated | Reduction of motor deficits (beam-walking foot faults) vs vehicle ([4]; day 7 after TBI): more than 50% | Motor function recovery (beam-walking) ([4]; day 14 after TBI): almost-complete recovery | Surviving neurons with dendrites, contralateral cortex [5]: 7.53±0.59% | Surviving neurons with dendrites, lesioned cortex [5]: 2.86±0.63%
